The record followed here is patent US20060094702A1, “5-HT4 receptor antagonists” (SMITHKLINE BEECHAM P.L.C., priority 1993, published 2006).

The target of the experiment is T1, 5-HT4 receptor (Cavia porcellus, UniProt O70528).
T1 construct: Longitudinal muscle-myenteric plexus preparations, approximately 3 cm long, are obtained from the distal colon region; from tissue; host or cells: guinea-pig distal colon longitudinal muscle-myenteric plexus
As to the kind of experiment: Guinea pig colon 5-HT4 receptor antagonist activity (5-HT evoked contraction of longitudinal muscle-myenteric plexus). The note with it: guinea-pig distal colon longitudinal muscle-myenteric plexus; contractions evoked by 5-HT; methiothepin 10^-7M and granisetron 10^-6M present; read-out: pIC50 (-log concentration of antagonist which reduces the contraction by 50%) (converted). The procedure: 5-HT4 Receptor Antagonist Activity
Male guinea-pigs, weighing 250-400 g are used. Longitudinal muscle-myenteric plexus preparations, approximately 3 cm long, are obtained from the distal colon region. These are suspended under a 0.5 g load in isolated tissue baths containing Krebs solution bubbled with 5% CO2 in O2 and maintained at 37° C. In all experiments, the Krebs solution also contains methiothepin 10^-7M and granisetron 10^-6M to block effects at 5-HT1, 5-HT2 and 5-HT3 receptors.
After construction of a simple concentration-response curve with 5-HT, using 30 s contact times and a 15 min dosing cycle, a concentration of 5-HT is selected so as to obtain a contraction of the muscle approximately 40-70% maximum(10^-9M approx). The tissue is then alternately dosed every 15 min with this concentration of 5-HT and then with an approximately equi-effective concentration of the nicotine receptor stimulant, dimethylphenylpiperazinium (DMPP). After obtaining consistent responses to both 5-HT and DMPP, increasing concentrations of a putative 5-HT4 receptor antagonist are then added to the bathing solution. The effects of this compound are then determined as a percentage reduction of the contractions evoked by 5-HT or by DMPP. […] A compound which reduces the response to 5-HT but not to DMPP is believed to act as a 5-HT4 receptor antagonist.

T1 sequence (O70528 whole entry): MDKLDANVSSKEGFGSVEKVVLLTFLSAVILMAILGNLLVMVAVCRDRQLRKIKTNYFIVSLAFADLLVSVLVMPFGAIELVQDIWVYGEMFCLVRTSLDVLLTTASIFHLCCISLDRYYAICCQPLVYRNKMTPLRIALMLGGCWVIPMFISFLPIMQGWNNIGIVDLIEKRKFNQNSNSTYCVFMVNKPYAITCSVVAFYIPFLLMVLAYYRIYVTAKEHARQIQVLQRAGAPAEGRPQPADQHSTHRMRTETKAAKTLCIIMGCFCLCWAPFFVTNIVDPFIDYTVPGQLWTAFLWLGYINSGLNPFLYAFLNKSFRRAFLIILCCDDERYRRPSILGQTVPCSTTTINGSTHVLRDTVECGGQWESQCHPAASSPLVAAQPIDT

With `CCCCN1CCC(CCC(=O)c2cn(C)c3ccccc23)CC1` [Example 1, 1-(1-Methyl-1H-indol-3-yl)-3-(1-butylpiperidin-4-yl)propan-1-one], the IC50 was 158 nM.
